Data taken from patent US20240150301A1, “METHODS OF MODULATING ANDROGEN RECEPTOR CONDENSATES” (ETERN BIOPHARMA (SHANGHAI) CO., LTD., priority 2021, published 2024).
“Also recorded” adds a separate entry of the source.

How the values were obtained:
Assay type in all cases: cell-based
[1] = tested on: VCaP cells; assay: Cell proliferation assay (CellTiter-Glo), VCaP; conditions: Homo sapiens, 96 h, 4 days, read-out: VCaP IC50 AR-positive, AR-V7 positive (cell proliferation)
Method: To evaluate the effect of exemplary compounds on proliferation of AR/AR-V7-dependent prostate cancer cells, cell viability assay was performed in LNCaP (AR-positive), 22Rv1 (AR-positive; AR-V7 positive), VCaP (AR-positive; AR-V7 positive), and DU145 (AR-negative) cells, respectively.
LNCaP cells were seeded in charcoal stripped FBS/phenol red-free RPMI medium in 96-well plates for 24 h before pretreating for 1 h with test compounds prior to addition of 0.2 nM DHT for 4 days. 22Rv1 or VCaP cells were cultured in charcoal stripped FBS/phenol red-free RPMI medium for 24 h before addition of test compounds for 4 days. DU145 cells were seeded in complete medium for 24 h before addition of test compounds for 4 days. Cell proliferation was measured with CellTiter-Glo® Luminescent Cell Viability Assay (Promega). In LNCaP cells, DHT-dependent cell growth is calculated by measuring the difference between vehicle control (DMSO) cells treated with or without 0.2 nM DHT. The IC50 values were determined using the four parameter fit via GraphPad Prism graphing software.

[2] = target: T1, AR V7 (Homo sapiens, UniProt P10275); assay: Live-cell imaging of AR puncta (LLPS) in LNCaP cells, AR V7-mEGFP; parameters: expressed in transfected cells; host or cells: LNCaP; conditions: 10 μM compound, no DHT
T1 sequence (P10275 1-644 isoform P10275-3): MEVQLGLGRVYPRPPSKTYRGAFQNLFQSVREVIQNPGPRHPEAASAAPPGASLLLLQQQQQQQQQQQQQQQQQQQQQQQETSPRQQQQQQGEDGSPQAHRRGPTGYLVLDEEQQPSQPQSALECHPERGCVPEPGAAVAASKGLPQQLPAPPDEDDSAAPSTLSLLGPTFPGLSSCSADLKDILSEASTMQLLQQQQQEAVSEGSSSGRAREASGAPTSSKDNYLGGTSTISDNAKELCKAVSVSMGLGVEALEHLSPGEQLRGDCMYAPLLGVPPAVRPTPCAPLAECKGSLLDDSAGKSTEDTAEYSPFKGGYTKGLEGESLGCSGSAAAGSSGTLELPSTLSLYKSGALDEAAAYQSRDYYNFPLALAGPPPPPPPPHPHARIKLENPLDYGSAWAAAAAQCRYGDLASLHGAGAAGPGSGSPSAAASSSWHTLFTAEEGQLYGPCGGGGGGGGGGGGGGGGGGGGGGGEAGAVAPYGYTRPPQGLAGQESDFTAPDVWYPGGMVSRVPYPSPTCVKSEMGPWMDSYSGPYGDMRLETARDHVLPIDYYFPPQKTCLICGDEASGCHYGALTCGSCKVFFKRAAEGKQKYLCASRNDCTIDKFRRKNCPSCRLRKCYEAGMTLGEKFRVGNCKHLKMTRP
Method: (§1) Cells were grown on 24-well glass bottom plate (Cellvis, P24-1.5H-N) and images were taken with the Leica TCS SP8 confocal microscopy system using a 100× oil objective (NA=1.4). Cells were imaged on a heated stage (37° C.) and supplemented with warmed (37° C.) humidified air. The microscope was enclosed in an incubation chamber heated to 37° C.
(§2) For compounds treatment assay, LNCaP cells were transfected with an expression vector for AR (AR or AR F877L/T878A)-mEGFP using steroid hormone-free and phenol red-free RPMI media for 24 hours before compound treatment. After 10 μM compounds treatment for 3 hour, LNCaP cells were added with 1 nM DHT. For ligand-independent AR V7-mEGFP expressing LNCaP cells, starvation step is skipped and compounds were added 12 hours after transfection. The final concentration of DMSO was 0.1%. Cells were subjected to microscopic observation every 30 mins after DHT/compounds were added.
(§3) Data was analyzed by images collected from 100 representative fields in each group. The spots quantification was performed based on the area and intensity of the spots through green (AR-mEGFP) channel. Fluorescent images were processed and assembled into figures using LAS X (Leica) and Fiji.
(§4) After 10 μM compounds treatment for 3 hour, LNCaP cells were added with 1 nM DHT. […]

[3] = target: T2, AR (Homo sapiens, UniProt P10275); assay: Live-cell imaging of AR puncta (LLPS) in LNCaP cells, AR-mEGFP; conditions: 10 μM compound, 1 nM DHT
T2 construct: expressed in transfected cells; host or cells: LNCaP
T2 sequence (P10275 1-920): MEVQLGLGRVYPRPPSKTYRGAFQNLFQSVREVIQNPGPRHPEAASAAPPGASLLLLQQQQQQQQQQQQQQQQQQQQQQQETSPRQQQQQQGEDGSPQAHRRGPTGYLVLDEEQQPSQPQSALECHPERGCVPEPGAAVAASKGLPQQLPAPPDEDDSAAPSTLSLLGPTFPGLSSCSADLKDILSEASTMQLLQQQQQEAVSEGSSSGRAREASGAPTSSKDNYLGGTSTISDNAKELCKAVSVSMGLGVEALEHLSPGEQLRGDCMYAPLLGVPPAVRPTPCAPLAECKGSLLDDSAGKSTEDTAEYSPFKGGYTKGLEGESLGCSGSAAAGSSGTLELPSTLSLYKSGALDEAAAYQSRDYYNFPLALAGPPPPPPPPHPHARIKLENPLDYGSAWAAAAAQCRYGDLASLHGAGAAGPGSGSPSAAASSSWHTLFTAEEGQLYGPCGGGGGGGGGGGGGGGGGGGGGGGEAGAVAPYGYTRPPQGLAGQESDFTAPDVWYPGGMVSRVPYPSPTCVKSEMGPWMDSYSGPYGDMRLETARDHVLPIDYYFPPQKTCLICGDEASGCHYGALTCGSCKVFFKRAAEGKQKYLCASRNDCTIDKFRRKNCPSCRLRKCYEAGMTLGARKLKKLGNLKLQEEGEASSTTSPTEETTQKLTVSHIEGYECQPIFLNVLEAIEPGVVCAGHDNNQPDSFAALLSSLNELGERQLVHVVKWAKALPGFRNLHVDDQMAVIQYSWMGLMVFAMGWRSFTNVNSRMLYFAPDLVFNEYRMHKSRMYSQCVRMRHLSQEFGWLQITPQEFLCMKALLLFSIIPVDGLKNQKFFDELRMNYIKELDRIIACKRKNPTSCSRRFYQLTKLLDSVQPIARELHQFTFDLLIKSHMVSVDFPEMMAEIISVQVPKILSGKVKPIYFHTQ
Method: as §1, §2, §3, §4

SMILES	IC50 [1] [µM]	puncta formation / LLPS of AR V7 [2]	puncta formation / LLPS of AR [3]
CC(C)(c1ccc(OCc2ccnc(NS(C)(=O)=O)n2)cc1)c1cc(Cl)c(OCCCl)c(C#N)c1 [Compound AA, N-(4-((4-(2-(3-chloro-4-(2-chloroethoxy)-5-cyanophenyl)propan-2-yl)phenoxy)methyl)pyrimidin-2-yl) methane sulfonamide, reference compound]	> 20		
CC(C)(c1ccc(C#Cc2cnc(NS(C)(=O)=O)nc2)cc1)c1cc(Cl)c(OCCCl)c(C#N)c1 [Compound 60, N-(5-((4-(2-(3-chloro-4-(2-chloroethoxy)-5-cyanophenyl)propan-2-yl)phenyl)ethynyl)pyrimidin-2-yl)methanesulfonamide]		could suppress the phase separation; also recorded: abolished the puncta formation; also recorded: significantly impaired the LLPS	could suppress the phase separation; also recorded: abolished the puncta formation
